US6849626B2, “Aza-amino acid derivatives (factor Xa inhibitors 15)” (Merck Patent GmbH, priority 2000, dated 2005)

Row | SMILES | melting point [°C]
1 | CCCN(Nc1cccc(C(=N)N)c1)C(=O)Nc1ccc(-c2ccccc2S(N)(=O)=O)cc1 [Compound 1, 4′-[3-(3-amidinophenyl)-2-propylcarbazoylamino]biphenyl-2-sulfonamide] | 215 to 216
2 | CCCN(Nc1cccc(C(=N)N)c1)C(=O)NNc1ccc(-c2ccccc2S(C)(=O)=O)cc1 [Compound 15, 1-(3-amidinophenyl)-4-(2′-methylsulfonylbiphenyl-4-ylamino)-2-propylsemicarbazide] | > 300
